Laboratory results published in ChEMBL document CHEMBL3877299, “Imidazopyridine-fused [1,3]-diazepinones part 2: Structure-activity relationships and antiproliferative activity against melanoma cells” (Eur J Med Chem, 2017).

How the values were obtained:
Format in all cases: functional
[1] = Cytotoxicity against human MDA-MB-435 cells assessed as growth inhibition after 48 hrs by MTT assay; conditions: MDA-MB-435, 48 h
[2] = Growth inhibition of human MOLT4 cells assessed as cell growth at 10 uM incubated for 48 hrs by sulforhodamine B assay relative to control; conditions: MOLT-4, 48 h, read-out: Activity
[3] = Growth inhibition of human SR cells assessed as cell growth at 10 uM incubated for 48 hrs by sulforhodamine B assay relative to control; conditions: read-out: Activity
[4] = Growth inhibition of human A549/ATCC cells assessed as cell growth at 10 uM incubated for 48 hrs by sulforhodamine B assay relative to control; conditions: A549, 48 h, read-out: Activity
[5] = Growth inhibition of human EKVX cells assessed as cell growth at 10 uM incubated for 48 hrs by sulforhodamine B assay relative to control; conditions: read-out: Activity
[6] = Growth inhibition of human NCI-H226 cells assessed as cell growth at 10 uM incubated for 48 hrs by sulforhodamine B assay relative to control; conditions: NCI-H226, 48 h, read-out: Activity
[7] = Growth inhibition of human NCI-H460 cells assessed as cell growth at 10 uM incubated for 48 hrs by sulforhodamine B assay relative to control; conditions: NCI-H460, 48 h, read-out: Activity
[8] = Growth inhibition of human HCC2998 cells assessed as cell growth at 10 uM incubated for 48 hrs by sulforhodamine B assay relative to control; conditions: HCC 2998, 48 h, read-out: Activity
[9] = Growth inhibition of human HCT116 cells assessed as cell growth at 10 uM incubated for 48 hrs by sulforhodamine B assay relative to control; conditions: HCT-116, 48 h, read-out: Activity
[10] = Growth inhibition of human HT-29 cells assessed as cell growth at 10 uM incubated for 48 hrs by sulforhodamine B assay relative to control; conditions: HT-29, 48 h, read-out: Activity
[11] = Growth inhibition of human SF295 cells assessed as cell growth at 10 uM incubated for 48 hrs by sulforhodamine B assay relative to control; conditions: SF-295, 48 h, read-out: Activity
[12] = Growth inhibition of human SNB19 cells assessed as cell growth at 10 uM incubated for 48 hrs by sulforhodamine B assay relative to control; conditions: SNB-19, 48 h, read-out: Activity
[13] = Growth inhibition of human SNB75 cells assessed as cell growth at 10 uM incubated for 48 hrs by sulforhodamine B assay relative to control; conditions: SNB-75, 48 h, read-out: Activity
[14] = Growth inhibition of human U251 cells assessed as cell growth at 10 uM incubated for 48 hrs by sulforhodamine B assay relative to control; conditions: U-251, 48 h, read-out: Activity
[15] = Growth inhibition of human MDA-MB-435 cells assessed as cell growth at 10 uM incubated for 48 hrs by sulforhodamine B assay relative to control; conditions: MDA-MB-435, 48 h, read-out: Activity
[16] = Growth inhibition of human SK-MEL-2 cells assessed as cell growth at 10 uM incubated for 48 hrs by sulforhodamine B assay relative to control; conditions: SK-MEL-2, 48 h, read-out: Activity
[17] = Growth inhibition of human SK-MEL-28 cells assessed as cell growth at 10 uM incubated for 48 hrs by sulforhodamine B assay relative to control; conditions: SK-MEL-28, 48 h, read-out: Activity
[18] = Growth inhibition of human SK-MEL-5 cells assessed as cell growth at 10 uM incubated for 48 hrs by sulforhodamine B assay relative to control; conditions: SK-MEL-5, 48 h, read-out: Activity
[19] = Growth inhibition of human UACC257 cells assessed as cell growth at 10 uM incubated for 48 hrs by sulforhodamine B assay relative to control; conditions: UACC-257, 48 h, read-out: Activity
[20] = Growth inhibition of human OVCAR3 cells assessed as cell growth at 10 uM incubated for 48 hrs by sulforhodamine B assay relative to control; conditions: OVCAR-3, 48 h, read-out: Activity
[21] = Growth inhibition of human OVCAR5 cells assessed as cell growth at 10 uM incubated for 48 hrs by sulforhodamine B assay relative to control; conditions: OVCAR-5, 48 h, read-out: Activity
[22] = Growth inhibition of human OVCAR8 cells assessed as cell growth at 10 uM incubated for 48 hrs by sulforhodamine B assay relative to control; conditions: OVCAR-8, 48 h, read-out: Activity
[23] = Growth inhibition of human 786-0 cells assessed as cell growth at 10 uM incubated for 48 hrs by sulforhodamine B assay relative to control; conditions: 786-0, 48 h, read-out: Activity
[24] = Growth inhibition of human A498 cells assessed as cell growth at 10 uM incubated for 48 hrs by sulforhodamine B assay relative to control; conditions: A498, 48 h, read-out: Activity
[25] = Growth inhibition of human ACHN cells assessed as cell growth at 10 uM incubated for 48 hrs by sulforhodamine B assay relative to control; conditions: read-out: Activity
[26] = Growth inhibition of human Caki1 cells assessed as cell growth at 10 uM incubated for 48 hrs by sulforhodamine B assay relative to control; conditions: CAKI-1, 48 h, read-out: Activity
[27] = Growth inhibition of human RXF393 cells assessed as cell growth at 10 uM incubated for 48 hrs by sulforhodamine B assay relative to control; conditions: RXF 393, 48 h, read-out: Activity
[28] = Growth inhibition of human SN12C cells assessed as cell growth at 10 uM incubated for 48 hrs by sulforhodamine B assay relative to control; conditions: read-out: Activity
[29] = Growth inhibition of human TK10 cells assessed as cell growth at 10 uM incubated for 48 hrs by sulforhodamine B assay relative to control; conditions: TK-10, 48 h, read-out: Activity
[30] = Growth inhibition of human UO31 cells assessed as cell growth at 10 uM incubated for 48 hrs by sulforhodamine B assay relative to control; conditions: UO-31, 48 h, read-out: Activity
[31] = Growth inhibition of human DU145 cells assessed as cell growth at 10 uM incubated for 48 hrs by sulforhodamine B assay relative to control; conditions: DU-145, 48 h, read-out: Activity
[32] = Growth inhibition of human MCF7 cells assessed as cell growth at 10 uM incubated for 48 hrs by sulforhodamine B assay relative to control; conditions: MCF7, 48 h, read-out: Activity
[33] = Growth inhibition of human MDA-MB-231 cells assessed as cell growth at 10 uM incubated for 48 hrs by sulforhodamine B assay relative to control; conditions: MDA-MB-231, 48 h, read-out: Activity
[34] = Growth inhibition of human Hs 578T cells assessed as cell growth at 10 uM incubated for 48 hrs by sulforhodamine B assay relative to control; conditions: read-out: Activity
[35] = Growth inhibition of human MDA-MB-468 cells assessed as cell growth at 10 uM incubated for 48 hrs by sulforhodamine B assay relative to control; conditions: MDA-MB-468, 48 h, read-out: Activity

## C[C@@H]1NC(c2ccc(Cl)cc2)=Nc2nc3ccccn3c2C1=O
[1]
  GI50: 5000 nM
[2]
  growth at 10 µM: 88.5%
[3]
  growth at 10 µM: 46.7%
[4]
  growth at 10 µM: 85.8%
[5]
  growth at 10 µM: 92.4%
[6]
  growth at 10 µM: 88%
[7]
  growth at 10 µM: 96.1%
[8]
  growth at 10 µM: 91.6%
[9]
  growth at 10 µM: 97%
[10]
  growth at 10 µM: 85.4%
[11]
  growth at 10 µM: 92.4%
[12]
  growth at 10 µM: 93.2%
[13]
  growth at 10 µM: 92.5%
[14]
  growth at 10 µM: 92.5%
[15]
  growth at 10 µM: 32.9%
[16]
  growth at 10 µM: 84.8%
[17]
  growth at 10 µM: 92.8%
[18]
  growth at 10 µM: 87.7%
[19]
  growth at 10 µM: 80.7%
[20]
  growth at 10 µM: 84.3%
[21]
  growth at 10 µM: 109%
[22]
  growth at 10 µM: 90.3%
[23]
  growth at 10 µM: 108%
[24]
  growth at 10 µM: 118%
[25]
  growth at 10 µM: 88.3%
[26]
  growth at 10 µM: 84.6%
[27]
  growth at 10 µM: 97.9%
[28]
  growth at 10 µM: 96.8%
[29]
  growth at 10 µM: 114%
[30]
  growth at 10 µM: 68.2%
[31]
  growth at 10 µM: 100%
[32]
  growth at 10 µM: 69.2%
[33]
  growth at 10 µM: 76%
[34]
  growth at 10 µM: 87.1%
[35]
  growth at 10 µM: 97.9%

## CC(C)(C)OC[C@@H]1NC(c2ccc(Br)cc2)=Nc2nc3ccccn3c2C1=O
[1]
  GI50: 950 nM
[2]
  growth at 10 µM: 53.7%
[3]
  growth at 10 µM: 35.4%
[4]
  growth at 10 µM: 51.6%
[5]
  growth at 10 µM: 81.6%
[6]
  growth at 10 µM: 78.1%
[7]
  growth at 10 µM: 41.3%
[8]
  growth at 10 µM: 90.9%
[9]
  growth at 10 µM: 43.7%
[10]
  growth at 10 µM: 21.8%
[11]
  growth at 10 µM: 30.9%
[12]
  growth at 10 µM: 76.5%
[13]
  growth at 10 µM: 77.4%
[14]
  growth at 10 µM: 63.5%
[15]
  growth at 10 µM: -13.8%
[16]
  growth at 10 µM: 49.2%
[17]
  growth at 10 µM: 68.6%
[18]
  growth at 10 µM: 38.4%
[19]
  growth at 10 µM: 62.3%
[20]
  growth at 10 µM: 34.2%
[21]
  growth at 10 µM: 105%
[22]
  growth at 10 µM: 79.5%
[23]
  growth at 10 µM: 94.2%
[24]
  growth at 10 µM: 66.9%
[25]
  growth at 10 µM: 75.3%
[26]
  growth at 10 µM: 64.2%
[27]
  growth at 10 µM: 61.6%
[28]
  growth at 10 µM: 84.1%
[29]
  growth at 10 µM: 95.1%
[30]
  growth at 10 µM: 52.1%
[31]
  growth at 10 µM: 82.7%
[32]
  growth at 10 µM: 27.8%
[33]
  growth at 10 µM: 61.5%
[34]
  growth at 10 µM: 65.2%
[35]
  growth at 10 µM: 45.6%

## C[C@@H]1NC(c2ccc3ccccc3c2)=Nc2nc3ccccn3c2C1=O
[1]
  GI50: 1400 nM
[2]
  growth at 10 µM: 34.5%
[3]
  growth at 10 µM: 30.5%
[4]
  growth at 10 µM: 39.5%
[5]
  growth at 10 µM: 75.6%
[6]
  growth at 10 µM: 64.5%
[7]
  growth at 10 µM: 15.2%
[8]
  growth at 10 µM: 77%
[9]
  growth at 10 µM: 18.3%
[10]
  growth at 10 µM: 5.93%
[11]
  growth at 10 µM: 14.9%
[12]
  growth at 10 µM: 53.3%
[13]
  growth at 10 µM: 37.1%
[14]
  growth at 10 µM: 32.5%
[15]
  growth at 10 µM: -24.6%
[16]
  growth at 10 µM: 36.3%
[17]
  growth at 10 µM: 59.9%
[18]
  growth at 10 µM: 35.3%
[19]
  growth at 10 µM: 40.9%
[20]
  growth at 10 µM: 16.9%
[21]
  growth at 10 µM: 90.6%
[22]
  growth at 10 µM: 54.4%
[23]
  growth at 10 µM: 69.3%
[24]
  growth at 10 µM: 47.2%
[25]
  growth at 10 µM: 55.4%
[26]
  growth at 10 µM: 38.5%
[27]
  growth at 10 µM: 49.9%
[28]
  growth at 10 µM: 60.1%
[29]
  growth at 10 µM: 64.4%
[30]
  growth at 10 µM: 55.6%
[31]
  growth at 10 µM: 73.3%
[32]
  growth at 10 µM: 25.2%
[33]
  growth at 10 µM: 52.5%
[34]
  growth at 10 µM: 29.3%
[35]
  growth at 10 µM: 50.5%

## C[C@@H]1NC(c2ccc(Cl)cc2Cl)=Nc2nc3ccccn3c2C1=O
[1]
  GI50: 1150 nM
[2]
  growth at 10 µM: 50.4%
[3]
  growth at 10 µM: 33%
[4]
  growth at 10 µM: 40.6%
[5]
  growth at 10 µM: 82.5%
[6]
  growth at 10 µM: 75.7%
[7]
  growth at 10 µM: 18.7%
[8]
  growth at 10 µM: 75.4%
[9]
  growth at 10 µM: 28.1%
[10]
  growth at 10 µM: 7.68%
[11]
  growth at 10 µM: 14.5%
[12]
  growth at 10 µM: 60.8%
[13]
  growth at 10 µM: 58.7%
[14]
  growth at 10 µM: 41.4%
[15]
  growth at 10 µM: -16.6%
[16]
  growth at 10 µM: 38.2%
[17]
  growth at 10 µM: 60.7%
[18]
  growth at 10 µM: 39.6%
[19]
  growth at 10 µM: 52.4%
[20]
  growth at 10 µM: 2.44%
[21]
  growth at 10 µM: 91.2%
[22]
  growth at 10 µM: 68.1%
[23]
  growth at 10 µM: 73.2%
[24]
  growth at 10 µM: 60.7%
[25]
  growth at 10 µM: 60.2%
[26]
  growth at 10 µM: 47.2%
[27]
  growth at 10 µM: 80.2%
[28]
  growth at 10 µM: 75.8%
[29]
  growth at 10 µM: 74.5%
[30]
  growth at 10 µM: 52.4%
[31]
  growth at 10 µM: 64.8%
[32]
  growth at 10 µM: 16.8%
[33]
  growth at 10 µM: 64.6%
[34]
  growth at 10 µM: 52%
[35]
  growth at 10 µM: 53.9%
